In patent US20090023700A1, “NEUROPROTECTIVE TREATMENTS” (University of Louisville Research Foundation, priority 2007, published 2009):

Key:
[1] = tested on: Iba1; assay: Iba1 immunostaining (microglial/macrophage activation) after T9 contusion; format: in vivo, rat; conditions: 7 d infusion started 4 h after injury
Experimental: Inflammation is a major contributor to white matter loss after spinal cord injury. Therefore, to find a potential mechanism for the axon- and myelin-protective effects of bpV(phen), its effects on Iba1 immunostaining were measured as a marker for microglial/macrophage activation and inflammation. […] Whereas, PBS-infused rats had clear infiltrates of activated macrophages, those infused with bpV(phen) had predominantly […] microglial cells. […] The extent of white matter loss in the dorsal column at the epicenter correlated to the extent of microglia/macrophage activation at the epicenter (FIG. 8B). The extent of inflammation 1 mm rostral to the injury correlated with the loss of CTB-labeled sensory projections in the gracile nucleus (FIG. 8C) but not with that seen at the epicenter (p=0.3) or caudal to the lesion (p=0.57). […] Conversely, the possibility that bpV(phen) affected inflammation at other times over the 7 d period cannot be excluded.
Anterogradely labeled sensory fibers and terminals were visualized in every third section through both gracile nuclei by DAB-based immunostaining for CTB as described previously (Baker et al. (2007) Exp Neurol 205:82-91). The lumbar sections were stained to ensure that the CTB injections were successful as evidenced by traced afferents and motor neurons. […] The epicenter of maximal injury was determined by the rostrocaudal level with the least amount of spared white matter per transverse section. […]
Quantitative measurements and statistics. The extent of sensory innervation of the gracile nucleus was determined by measuring the CTB-labeled terminal fiber area in every third section as described previously (Baker et al. (2007) Exp Neurol 205:82-91). In short, images of every third section through the right and left gracile nuclei were analyzed using the density slice feature of the Scion Image software. […] Images of EC-stained sections were captured, and the positive areas were measured with Scion Image. […]

[2] = tested on: cdc25B PTP; conditions: yeast enzyme; cited from earlier work
[3] = tested on: human aortic endothelial cells; assay: Apoptosis of serum-deprived cultured endothelial cells; format: cell-based; conditions: for apoptotic endothelial cells: 3 μM
Experimental: To determine whether bpV(phen) can directly promote survival of endothelial cells, it was tested on cultured human aortic endothelial cells deprived of serum. […] With 3 μM bpV(phen), only ˜1.3% were apoptotic in both the 0 and 5% serum groups (FIG. 9A). Eighteen hours after plating under control conditions, between 5 and 13% of endothelial cells were apoptotic, whereas treatment with 3 μM bpV(phen) reduced apoptosis to ˜2-3% (FIG. 9B).
Endothelial cell cultures. Human aortic endothelial cells (Lonza Walkersville) were plated at 5×10^4 cells per well in 24 well polystyrene plates and incubated with different concentrations of bpV(phen) for 6 or 18 h at 37° C. in DMEM/Ham's F-12 (BioWhittaker) plus EGM-2 growth factor supplements [EGM-2 SingleQuots (Lonza Walkersville) containing hydrocortisone, human epidermal growth factor, FBS, vascular endothelial growth factor, human basic fibroblast growth factor, R3-IGF-1, ascorbic acid, heparin, and gentamicin/amphotericin-B] and 10-20% fetal calf serum. […] Afterward, the endothelial cells were fixed in 4% paraformaldehyde for 2 h, the nuclei were stained with 2.5 μg/ml DNA dye Hoechst 33258 (bis-benzimide; Sigma) in PBS containing 0.1% Triton X-100 for 30 min, and the cells were covered with Fluoromount-G (Southern Biotechnology) to reduce fluorescence-induced fading (Invitrogen).
Quantitative measurements and statistics. The extent of sensory innervation of the gracile nucleus was determined by measuring the CTB-labeled terminal fiber area in every third section as described previously (Baker et al. (2007) Exp Neurol 205:82-91). In short, images of every third section through the right and left gracile nuclei were analyzed using the density slice feature of the Scion Image software. […] Images of EC-stained sections were captured, and the positive areas were measured with Scion Image. […] The number of spared myelinated axons at C3 was counted in semithin sections using a 63× oil objective in 15.7×15.7 μm grids placed over the middle part of each fasciculus gracilis (see FIG. 4D-4F). […]

**Q.** With `O.O.O.OO.OO.[K+].[OH-].[V].c1cnc2c(c1)ccc1cccnc12` [bpV(phen), potassium bisperoxo(1,10-phenanthroline)oxovanadate (V)] as the compound, how does the “area of Iba1-immunostained structures” value ([1]; 1 mm caudal to epicenter, p=0.49) read?
**A.** no difference

**Q.** And the “area of Iba1-immunostained structures” value ([1]; 1 mm rostral to epicenter, p<0.005)?
**A.** significantly reduced

**Q.** What about the “area of Iba1-immunostained structures” value ([1]; at the epicenter, p=0.053) of the same compound?
**A.** trend of a reduction

**Q.** What about the “inhibition of catalytic activity of purified cdc25B PTP” value [2] of the same compound?
**A.** can inhibit

**Q.** What about the endothelial apoptosis ([3]; 1 μM, 18 h, 0, 1.25, 2.5 and 5% serum) of the same compound?
**A.** only reduces endothelial apoptosis in the 2.5 and 5% serum groups

**Q.** What about the apoptotic endothelial cells ([3]; 6 h after plating, 0 and 5% serum groups, control 2-3%) of the same compound?
**A.** ~1.3%

**Q.** And the apoptotic endothelial cells ([3]; 18 h after plating, serum deprived, control 5-13%)?
**A.** 2-3%
